# Laboratory results: patent publication US20230167073A1 (Teijin Pharma Limited, priority 2020, published 2023)
# Biological target: T1, Human TRPC6 (Homo sapiens, UniProt Q9Y210)
# T1 construct: expressed in transfected cells
# T1 sequence (Q9Y210 1-931): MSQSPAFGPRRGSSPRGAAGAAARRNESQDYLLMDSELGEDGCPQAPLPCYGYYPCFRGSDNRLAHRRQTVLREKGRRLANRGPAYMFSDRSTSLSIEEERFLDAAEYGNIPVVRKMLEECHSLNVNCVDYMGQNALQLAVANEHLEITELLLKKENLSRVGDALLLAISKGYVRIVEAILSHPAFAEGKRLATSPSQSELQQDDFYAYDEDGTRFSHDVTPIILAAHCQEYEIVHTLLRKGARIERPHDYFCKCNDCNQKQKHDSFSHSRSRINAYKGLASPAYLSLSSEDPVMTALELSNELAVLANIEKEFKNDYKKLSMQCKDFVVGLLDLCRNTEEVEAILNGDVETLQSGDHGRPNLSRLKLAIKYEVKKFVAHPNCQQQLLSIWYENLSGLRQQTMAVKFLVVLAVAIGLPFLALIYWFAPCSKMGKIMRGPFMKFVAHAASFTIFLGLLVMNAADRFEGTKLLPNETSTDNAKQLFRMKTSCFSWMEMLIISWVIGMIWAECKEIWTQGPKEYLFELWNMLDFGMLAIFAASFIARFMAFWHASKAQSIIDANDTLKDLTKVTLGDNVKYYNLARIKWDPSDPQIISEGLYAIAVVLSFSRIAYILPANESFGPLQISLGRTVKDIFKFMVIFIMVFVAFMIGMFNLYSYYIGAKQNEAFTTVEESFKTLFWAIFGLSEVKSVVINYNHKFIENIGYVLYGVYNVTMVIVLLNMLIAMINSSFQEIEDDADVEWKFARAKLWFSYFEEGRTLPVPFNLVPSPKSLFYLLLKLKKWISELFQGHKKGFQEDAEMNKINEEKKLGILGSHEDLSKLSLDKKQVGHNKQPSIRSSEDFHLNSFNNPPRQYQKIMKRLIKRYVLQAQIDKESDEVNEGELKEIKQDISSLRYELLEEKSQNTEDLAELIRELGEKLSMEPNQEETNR
# Experiment: Evaluation of TRPC6 channel inhibitory activity (1), FLIPR Calcium 5 Assay Kit, OAG stimulation (Compound Nos. 1-1293)
# Format: cell-based
# Conditions: Human TRPC6 stably-expressing cells, OAG 30 μM, FLIPR Calcium 5 Assay Kit; read-out: Inhibitory activity (pIC50 class) (converted)
# In short: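 The FLIPR signal is maximum fluorescence after 30 μM OAG minus minimum before compound, measured in a human TRPC6 stable line loaded with Calcium 5 dye. Compounds were preincubated 20 min. pIC50 came from four-parameter logistic fitting of inhibition rates and is given as symbol ranges.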
row,SMILES,IC50
1,"Cc1nc(OCC(F)F)cc(Oc2cc(C#N)ccc2-c2ncc(CN)cn2)n1 [compound 897, 4-[5-(aminomethyl)pyrimidin-2-yl]-3-[6-(2,2-difluoroethoxy)-2-methylpyrimidin-4-yl]oxybenzonitrile]",> 1000 nM
2,"Cc1nc(Oc2cc(C#N)ccc2-c2ncc(CN)cn2)cc(OC2CC2)n1 [compound 898, 4-[5-(aminomethyl)pyrimidin-2-yl]-3-(6-cyclopropyloxy-2-methylpyrimidin-4-yl)oxybenzonitrile]",> 1000 nM
3,"Cc1cc(Oc2cc(C#N)c(C)cc2-c2ncc(CN)cn2)cc(N2CCOCC2)n1 [compound 899, 4-[5-(aminomethyl)pyrimidin-2-yl]-2-methyl-5-(2-methyl-6-morpholin-4-ylpyridin-4-yl)oxybenzonitrile]",10 to 1000 nM
4,"Cc1cc(Oc2cc(C#N)c(C)cc2-c2ncc(CCN)cn2)cc(N2CCOCC2)n1 [compound 900, 4-[5-(2-aminoethyl)pyrimidin-2-yl]-2-methyl-5-(2-methyl-6-morpholin-4-ylpyridin-4-yl)oxybenzonitrile]",< 10 nM
5,"Cc1cnc(N2CCOCC2)cc1Oc1cc(C#N)ccc1-c1ncc(CN)cn1 [compound 901, 4-[5-(aminomethyl)pyrimidin-2-yl]-3-(5-methyl-2-morpholin-4-ylpyridin-4-yl)oxybenzonitrile]",> 1000 nM
6,"Cc1cnc(N2CCOCC2)cc1Oc1cc(C#N)ccc1-c1ncc(CCN)cn1 [compound 902, 4-[5-(2-aminoethyl)pyrimidin-2-yl]-3-(5-methyl-2-morpholin-4-ylpyridin-4-yl)oxybenzonitrile]",10 to 1000 nM
7,"CC(C)Cn1cc(Oc2cc(C#N)ccc2-c2ncc(CCN)cn2)cn1 [compound 907, 4-[5-(2-aminoethyl)pyrimidin-2-yl]-3-[1-(2-methylpropyl)pyrazol-4-yl]oxybenzonitrile]",< 10 nM
8,"CC(C)Cn1cc(Oc2cc(C#N)ccc2-c2ncc(CN)cn2)cn1 [compound 908, 4-[5-(aminomethyl)pyrimidin-2-yl]-3-[1-(2-methylpropyl)pyrazol-4-yl]oxybenzonitrile]",< 10 nM
9,"N#Cc1ccc(-c2ncc(CCN)cn2)c(Oc2cnn(CC(F)(F)F)c2)c1 [compound 911, 4-[5-(2-aminoethyl)pyrimidin-2-yl]-3-[1-(2,2,2-trifluoroethyl)pyrazol-4-yl]oxybenzonitrile]",10 to 1000 nM
10,"N#Cc1ccc(-c2ncc(CCN)cn2)c(Oc2cnn(-c3ccccn3)c2)c1 [compound 912, 4-[5-(2-aminoethyl)pyrimidin-2-yl]-3-(1-pyridin-2-ylpyrazol-4-yl)oxybenzonitrile]",< 10 nM
11,"CCN(CC)c1cc(Oc2cc(C#N)ccc2-c2ccc([C@H](F)CN)cn2)n(C)n1 [compound 915, 4-[5-[(1S)-2-amino-1-fluoroethyl]pyridin-2-yl]-3-[5-(diethylamino)-2-methylpyrazol-3-yl]oxybenzonitrile]",< 10 nM
12,"N#Cc1ccc(-c2ncc(CCN)cn2)c(Oc2cncc(N3CCOCC3)c2)c1 [compound 917, 4-[5-(2-aminoethyl)pyrimidin-2-yl]-3-(5-morpholin-4-ylpyridin-3-yl)oxybenzonitrile]",10 to 1000 nM
13,"N#Cc1ccc(-c2ncc(CN)cn2)c(Oc2cncc(N3CCOCC3)c2)c1 [compound 918, 4-[5-(aminomethyl)pyrimidin-2-yl]-3-(5-morpholin-4-ylpyridin-3-yl)oxybenzonitrile]",> 1000 nM
14,"Cc1ncc(N2CCOCC2)cc1Oc1cc(C#N)ccc1-c1ncc(CCN)cn1 [compound 919, 4-[5-(2-aminoethyl)pyrimidin-2-yl]-3-(2-methyl-5-morpholin-4-ylpyridin-3-yl)oxybenzonitrile]",10 to 1000 nM
15,"Cc1ncc(N2CCOCC2)cc1Oc1cc(C#N)ccc1-c1ncc(CN)cn1 [compound 920, 4-[5-(aminomethyl)pyrimidin-2-yl]-3-(2-methyl-5-morpholin-4-ylpyridin-3-yl)oxybenzonitrile]",> 1000 nM
16,"Cc1nc(N2CCOCC2)ccc1Oc1cc(C#N)ccc1-c1ncc(CCN)cn1 [compound 921, 4-[5-(2-aminoethyl)pyrimidin-2-yl]-3-(2-methyl-6-morpholin-4-ylpyridin-3-yl)oxybenzonitrile]",> 1000 nM
17,"Cc1nc(N2CCOCC2)ccc1Oc1cc(C#N)ccc1-c1ncc(CN)cn1 [compound 922, 4-[5-(aminomethyl)pyrimidin-2-yl]-3-(2-methyl-6-morpholin-4-ylpyridin-3-yl)oxybenzonitrile]",> 1000 nM
18,"Cn1nc(C2CC2)cc1Oc1cc(C#N)ccc1-c1ccc(C(=O)CN)cn1 [compound 923, 4-[5-(2-aminoacetyl)pyridin-2-yl]-3-(5-cyclopropyl-2-methylpyrazol-3-yl)oxybenzonitrile]",10 to 1000 nM

# More lines, now with the values ahead:
row,IC50,SMILES
1,< 10 nM,"Cn1nc(C(F)(F)F)cc1Oc1cc(C#N)ccc1-c1ncc([C@H](F)CN)cn1 [compound 903, 4-[5-[(1S)-2-amino-1-fluoroethyl]pyrimidin-2-yl]-3-[2-methyl-5-(trifluoromethyl)pyrazol-3-yl]oxybenzonitrile]"
2,< 10 nM,"Cn1nc(C(F)(F)F)cc1Oc1cc(C#N)ccc1-c1ncc([C@@H](F)CN)cn1 [compound 904, 4-[5-[(1R)-2-amino-1-fluoroethyl]pyrimidin-2-yl]-3-[2-methyl-5-(trifluoromethyl)pyrazol-3-yl]oxybenzonitrile]"
3,< 10 nM,"CN(C)c1cc(Oc2cc(C#N)ccc2-c2ncc([C@H](F)CN)cn2)n(C)n1 [compound 905, 4-[5-[(1S)-2-amino-1-fluoroethyl]pyrimidin-2-yl]-3-[5-(dimethylamino)-2-methylpyrazol-3-yl]oxybenzonitrile]"
4,< 10 nM,"CN(C)c1cc(Oc2cc(C#N)ccc2-c2ncc([C@@H](F)CN)cn2)n(C)n1 [compound 906, 4-[5-[(1R)-2-amino-1-fluoroethyl]pyrimidin-2-yl]-3-[5-(dimethylamino)-2-methylpyrazol-3-yl]oxybenzonitrile]"
5,< 10 nM,"CN(C)c1cc(Oc2cc(C#N)ccc2-c2ccc([C@H](F)CN)cn2)n(C)n1 [compound 909, 4-[5-[(1S)-2-amino-1-fluoroethyl]pyridin-2-yl]-3-[5-(dimethylamino)-2-methylpyrazol-3-yl]oxybenzonitrile]"
6,< 10 nM,"CN(C)c1cc(Oc2cc(C#N)ccc2-c2ccc([C@@H](F)CN)cn2)n(C)n1 [compound 910, 4-[5-[(1R)-2-amino-1-fluoroethyl]pyridin-2-yl]-3-[5-(dimethylamino)-2-methylpyrazol-3-yl]oxybenzonitrile]"
7,< 10 nM,"CCN(CC)c1cc(Oc2cc(C#N)ccc2-c2ncc([C@H](F)CN)cn2)n(C)n1 [compound 913, 4-[5-[(1S)-2-amino-1-fluoroethyl]pyrimidin-2-yl]-3-[5-(diethylamino)-2-methylpyrazol-3-yl]oxybenzonitrile]"
8,< 10 nM,"CCN(CC)c1cc(Oc2cc(C#N)ccc2-c2ncc([C@@H](F)CN)cn2)n(C)n1 [compound 914, 4-[5-[(1R)-2-amino-1-fluoroethyl]pyrimidin-2-yl]-3-[5-(diethylamino)-2-methylpyrazol-3-yl]oxybenzonitrile]"
9,< 10 nM,"CCN(CC)c1cc(Oc2cc(C#N)ccc2-c2ccc([C@@H](F)CN)cn2)n(C)n1 [compound 916, 4-[5-[(1R)-2-amino-1-fluoroethyl]pyridin-2-yl]-3-[5-(diethylamino)-2-methylpyrazol-3-yl]oxybenzonitrile]"
